Source: patent US20020137929A1, “1 - (3-heterocyclylphenyl) isothiourea, -isourea, -guanidine and -amidine herbicidal agents” (Intellectual Property Department, BASF Aktiengesellschaft, priority 1998, published 2002)

Experiments:
SETVI (Foxtail, Green) = assay: Preemergence herbicidal evaluation; type: in vivo, Setaria viridis; settings: rated 4-5 weeks after treatment; for SETVI rating: preemergence, 0-9 scale
Summary of the method: (§1)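 In this greenhouse assay, monocot and dicot seeds are planted in soil and treated prior to emergence with an aqueous acetone spray (about 0.0156-0.500 kg/ha). Plants are assessed visually against control on a 0-9 scale after 4-5 weeks.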

GALAP (Galium) = assay: Preemergence herbicidal evaluation; type: in vivo, Galium aparine; settings: rated 4-5 weeks after treatment; for GALAP rating: preemergence, 0-9 scale
Summary of the method: as §1

ZEAMX (Corn, Field) = assay: Preemergence herbicidal evaluation; type: in vivo, Zea mays; settings: rated 4-5 weeks after treatment; for ZEAMX rating: preemergence, 0-9 scale
Summary of the method: as §1

MOOVA (Monochoria) = assay: Preemergence weed control under flooded paddy conditions; type: in vivo, Monochoria vaginalis; settings: rated 3-4 weeks after treatment
Summary of the method: (§2)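 Visual injury scored 0-9 against control three to four weeks post-treatment, greenhouse-grown. Application: acetone/water (50/50) solutions dosed directly into flood water (1.5-3 cm over silt loam, planted top 0.5 cm), roughly 0.0313 to 0.500 kg/ha active ingredient.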

ECHCG (Barnyardgrass) = assay: Postemergence herbicidal evaluation; type: in vivo, Echinochloa crus-galli; settings: postemergence
Summary of the method: (§3)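 Compound is applied as a foliar spray to seedlings about two weeks old, formulated in equal parts acetone and water with 0.5% TWEEN 20 and delivered at 40 psi to give about 0.0156–0.500 kg per hectare. Injury is rated visually 0–9 after four to five weeks.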

CYPIR (Rice Flatsedge) = assay: Preemergence weed control under flooded paddy conditions; type: in vivo, Cyperus iria; settings: rated 3-4 weeks after treatment
Summary of the method: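 Flooded-pot preemergence screen with silt loam and seeds in the upper 0.5 cm. Dose about 0.0313 to 0.500 kg/ha, delivered into flood water; visual 0-9 score after 3 to 4 weeks.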

CASOB (Sicklepod) = assay: Postemergence herbicidal evaluation; type: in vivo, Cassia obtusifolia; settings: postemergence
Summary of the method: as §3

[1] = test system: SAGPY (Arrowhead (Pygmaea)); assay: Preemergence weed control under flooded paddy conditions; type: in vivo, Sagittaria pygmaea; settings: rated 3-4 weeks after treatment
Summary of the method: as §2

ORYSAT (Rice, Tebonnet) [2] = assay: Postemergence herbicidal evaluation; type: in vivo, Oryza sativa, (L.) Tebonnet; settings: postemergence
Summary of the method: as §3

ORYSAT (Rice, Tebonnet) [3] = assay: Preemergence herbicidal evaluation; type: in vivo, Oryza sativa, (L.) Tebonnet; settings: rated 4-5 weeks after treatment; for ORYSAT rating: preemergence, 0-9 scale
Summary of the method: as §1

[4] = test system: GLXMAW (Soybean, Williams); assay: Preemergence herbicidal evaluation; type: in vivo, Glycine max, (L.) Merr. cv Williams; settings: rated 4-5 weeks after treatment; for GLXMAW rating: preemergence, 0-9 scale
Summary of the method: as §1

[5] = test system: CHEAL (Lambsquarters, Common); assay: Postemergence herbicidal evaluation; type: in vivo, Chenopodium album; settings: postemergence
Summary of the method: as §3

[6] = test system: TRZAWR (Wheat, Winter, cv Riband); assay: Preemergence herbicidal evaluation; type: in vivo, Triticum aestivum; settings: rated 4-5 weeks after treatment; for TRZAWR rating: preemergence, 0-9 scale
Summary of the method: as §1

C=CCOC(=O)CN1C(=O)CSC1=Nc1cc(-n2c(=O)cc(C(F)(F)F)n(C)c2=O)c(F)cc1Cl [Compound 106, Allyl 2-{{2-chloro-5-[3,6-dihydro-3-methyl-2,6-dioxo-4-(trifluoromethyl)-1(2H)-pyrimidinyl]-4-fluorophenyl}imino}-4-oxo-3-thiazolidineacetate]
SETVI rating (SETVI (Foxtail, Green); 0.0313 kg/ha): 0.5
SETVI rating (SETVI (Foxtail, Green); 0.0625 kg/ha): 4.5
SETVI rating (SETVI (Foxtail, Green); 0.1250 kg/ha): 9.0
SETVI rating (SETVI (Foxtail, Green); 0.2500 kg/ha): 9.0
Preemergence herbicidal rating SETVI (SETVI (Foxtail, Green); rate 0.0156 kg/ha): 0.0
GALAP rating (GALAP (Galium); 0.0313 kg/ha): 2.0
GALAP rating (GALAP (Galium); 0.0625 kg/ha): 3.0
GALAP rating (GALAP (Galium); 0.1250 kg/ha): 6.0
GALAP rating (GALAP (Galium); 0.2500 kg/ha): 7.0
Preemergence herbicidal rating GALAP (GALAP (Galium); rate 0.0156 kg/ha): 1.0
ZEAMX rating (ZEAMX (Corn, Field); 0.0313 kg/ha): 1.0
ZEAMX rating (ZEAMX (Corn, Field); 0.0625 kg/ha): 2.5
ZEAMX rating (ZEAMX (Corn, Field); 0.1250 kg/ha): 4.0
ZEAMX rating (ZEAMX (Corn, Field); 0.2500 kg/ha): 5.0
Preemergence herbicidal rating ZEAMX (ZEAMX (Corn, Field); rate 0.0156 kg/ha): 0.0
MOOVA herbicidal effect rating (MOOVA (Monochoria); 0.0313 kg/ha): 9.0
MOOVA herbicidal effect rating (MOOVA (Monochoria); 0.0625 kg/ha): 9.0
MOOVA herbicidal effect rating (MOOVA (Monochoria); 0.1250 kg/ha): 9.0
MOOVA herbicidal effect rating (MOOVA (Monochoria); 0.2500 kg/ha): 9.0
herbicidal rating ECHCG (ECHCG (Barnyardgrass); rate 0.0158 kg/ha): 2.0
herbicidal rating ECHCG (ECHCG (Barnyardgrass); rate 0.0315 kg/ha): 2.0
herbicidal rating ECHCG (ECHCG (Barnyardgrass); rate 0.0630 kg/ha): 7.0
CYPIR herbicidal effect rating (CYPIR (Rice Flatsedge); 0.0313 kg/ha): 5.0
CYPIR herbicidal effect rating (CYPIR (Rice Flatsedge); 0.0625 kg/ha): 6.0
CYPIR herbicidal effect rating (CYPIR (Rice Flatsedge); 0.1250 kg/ha): 6.0
CYPIR herbicidal effect rating (CYPIR (Rice Flatsedge); 0.2500 kg/ha): 9.0
herbicidal rating CASOB (CASOB (Sicklepod); rate 0.0158 kg/ha): 1.0
herbicidal rating CASOB (CASOB (Sicklepod); rate 0.0315 kg/ha): 1.0
herbicidal rating CASOB (CASOB (Sicklepod); rate 0.0630 kg/ha): 3.0
SAGPY herbicidal effect rating ([1]; 0.0313 kg/ha): 3.0
SAGPY herbicidal effect rating ([1]; 0.0625 kg/ha): 4.0
SAGPY herbicidal effect rating ([1]; 0.1250 kg/ha): 5.0
SAGPY herbicidal effect rating ([1]; 0.2500 kg/ha): 7.0
herbicidal rating ORYSAT (ORYSAT (Rice, Tebonnet) [2]; rate 0.0158 kg/ha): 2.0
herbicidal rating ORYSAT (ORYSAT (Rice, Tebonnet) [2]; rate 0.0315 kg/ha): 2.5
herbicidal rating ORYSAT (ORYSAT (Rice, Tebonnet) [2]; rate 0.0630 kg/ha): 4.0
ORYSAT rating (ORYSAT (Rice, Tebonnet) [3]; 0.0313 kg/ha): 1.0
ORYSAT rating (ORYSAT (Rice, Tebonnet) [3]; 0.0625 kg/ha): 2.0
ORYSAT rating (ORYSAT (Rice, Tebonnet) [3]; 0.1250 kg/ha): 2.5
ORYSAT rating (ORYSAT (Rice, Tebonnet) [3]; 0.2500 kg/ha): 5.0
Preemergence herbicidal rating ORYSAT (ORYSAT (Rice, Tebonnet) [3]; rate 0.0156 kg/ha): 1.5
GLXMAW rating ([4]; 0.0313 kg/ha): 1.5
GLXMAW rating ([4]; 0.0625 kg/ha): 2.0
GLXMAW rating ([4]; 0.1250 kg/ha): 3.5
GLXMAW rating ([4]; 0.2500 kg/ha): 5.0
Preemergence herbicidal rating GLXMAW ([4]; rate 0.0156 kg/ha): 1.0
herbicidal rating CHEAL ([5]; rate 0.0158 kg/ha): 7.0
herbicidal rating CHEAL ([5]; rate 0.0315 kg/ha): 7.0
herbicidal rating CHEAL ([5]; rate 0.0630 kg/ha): 7.0
TRZAWR rating ([6]; 0.0313 kg/ha): 0.0
TRZAWR rating ([6]; 0.0625 kg/ha): 2.0
TRZAWR rating ([6]; 0.1250 kg/ha): 3.0
TRZAWR rating ([6]; 0.2500 kg/ha): 5.0
Preemergence herbicidal rating TRZAWR ([6]; rate 0.0156 kg/ha): 0.0
